The assay addresses Phosphatidylinositol 4,5-bisphosphate 3-kinase catalytic subunit gamma isoform (Homo sapiens) (UniProt P48736). Nature of the assay: Inhibition of PI3Kgamma in human Raji cells assessed as inhibition of cell viability at 100 nM after 72 hrs by CellTiter-Glo luminescence assay. In kind it is cell-based. In general terms: ATP-based viability assays read luminescence as a measure of living cells.

Activity calls are given as the source filed them. No cut-off for these calls is given here.

Chain of Phosphatidylinositol 4,5-bisphosphate 3-kinase catalytic subunit gamma isoform (Homo sapiens) (P48736 whole entry, looked up, canonical isoform): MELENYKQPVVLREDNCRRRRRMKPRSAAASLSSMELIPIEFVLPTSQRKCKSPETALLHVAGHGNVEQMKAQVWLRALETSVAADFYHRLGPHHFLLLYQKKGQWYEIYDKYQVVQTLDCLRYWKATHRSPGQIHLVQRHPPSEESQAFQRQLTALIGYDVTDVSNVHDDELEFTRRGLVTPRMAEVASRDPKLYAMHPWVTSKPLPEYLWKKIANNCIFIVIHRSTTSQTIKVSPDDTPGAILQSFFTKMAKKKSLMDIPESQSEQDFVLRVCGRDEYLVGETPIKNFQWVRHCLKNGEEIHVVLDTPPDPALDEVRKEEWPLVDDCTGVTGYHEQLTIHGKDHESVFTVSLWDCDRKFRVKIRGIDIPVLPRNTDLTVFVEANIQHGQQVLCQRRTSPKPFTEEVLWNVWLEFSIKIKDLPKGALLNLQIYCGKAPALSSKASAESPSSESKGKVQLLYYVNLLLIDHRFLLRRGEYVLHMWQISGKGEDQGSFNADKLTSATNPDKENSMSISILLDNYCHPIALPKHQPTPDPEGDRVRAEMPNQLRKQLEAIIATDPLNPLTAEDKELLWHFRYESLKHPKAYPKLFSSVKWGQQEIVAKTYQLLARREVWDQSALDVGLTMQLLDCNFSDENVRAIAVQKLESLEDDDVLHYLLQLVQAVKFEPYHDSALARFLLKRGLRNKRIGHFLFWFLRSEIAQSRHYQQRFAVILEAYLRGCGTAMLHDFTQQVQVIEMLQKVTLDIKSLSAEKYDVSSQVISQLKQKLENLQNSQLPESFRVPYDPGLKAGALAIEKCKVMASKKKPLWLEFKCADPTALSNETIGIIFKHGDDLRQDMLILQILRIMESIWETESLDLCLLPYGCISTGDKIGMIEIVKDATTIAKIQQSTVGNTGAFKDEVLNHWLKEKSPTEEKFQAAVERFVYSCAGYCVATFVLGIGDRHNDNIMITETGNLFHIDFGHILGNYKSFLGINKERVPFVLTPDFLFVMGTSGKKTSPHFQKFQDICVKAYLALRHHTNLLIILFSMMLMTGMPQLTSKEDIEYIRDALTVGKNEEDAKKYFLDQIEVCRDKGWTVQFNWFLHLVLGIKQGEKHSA

Take `CC[C@H](C)[C@H](N)C(=O)OC1=C(C)[C@@H]2C[C@H]3OC(=O)[C@H](OC(=O)C=C(C)C)[C@H]4[C@]5(C(=O)OC)OC[C@]34[C@H]([C@@H](O)[C@@H]5O)[C@@]2(C)CC1=O`: the inhibition entry was “Active”.
As to `COC(=O)COC1=C(C)[C@@H]2C[C@H]3OC(=O)[C@H](OC(=O)C=C(C)C)[C@H]4[C@]5(C(=O)OC)OC[C@]34[C@H]([C@@H](O)[C@@H]5O)[C@@]2(C)CC1=O`, the inhibition entry is “inactive”.
Turning to `COC(=O)[C@@]12OC[C@]34[C@H]([C@@H](O)[C@@H]1O)[C@@]1(C)CC(=O)C(OC(=O)[C@@H]5CCCN5C(=O)OC(C)(C)C)=C(C)[C@@H]1C[C@H]3OC(=O)[C@H](OC(=O)C=C(C)C)[C@@H]24`, the inhibition entry is “Active”.
With `COC(=O)[C@@]12OC[C@]34[C@H]([C@@H](O)[C@@H]1O)[C@@]1(C)CC(=O)C(OCC(N)=O)=C(C)[C@@H]1C[C@H]3OC(=O)[C@H](OC(=O)C=C(C)C)[C@@H]24`, the inhibition result was “inactive”.
Consider `COC(=O)[C@@]12OC[C@]34[C@H]([C@@H](O)[C@@H]1O)[C@@]1(C)CC(=O)C(OCC(=O)NC(Cc5ccccc5)C(=O)OC(C)(C)C)=C(C)[C@@H]1C[C@H]3OC(=O)[C@H](OC(=O)C=C(C)C)[C@@H]24` (stereo partly specified), for which the inhibition entry was “inactive”.
As for `COC(=O)[C@@]12OC[C@]34[C@H]([C@@H](O)[C@@H]1O)[C@@]1(C)CC(=O)C(OCC(=O)NCCC(=O)OC(C)(C)C)=C(C)[C@@H]1C[C@H]3OC(=O)[C@H](OC(=O)C=C(C)C)[C@@H]24`, the entry is “inactive”.
Consider `COC(=O)[C@@]12OC[C@]34[C@H]([C@@H](O)[C@@H]1O)[C@@]1(C)CC(=O)C(OC(=O)C[C@H](C)NS(C)(=O)=O)=C(C)[C@@H]1C[C@H]3OC(=O)[C@H](OC(=O)C=C(C)C)[C@@H]24`, for which the inhibition entry was “inactive”.
Consider `COC(=O)[C@@]12OC[C@]34[C@H]([C@@H](O)[C@@H]1O)[C@@]1(C)CC(=O)C(OCC(=O)NC(C)(C)C)=C(C)[C@@H]1C[C@H]3OC(=O)[C@H](OC(=O)C=C(C)C)[C@@H]24`, for which the inhibition entry is “inactive”.
For `COC(=O)[C@@]12OC[C@]34[C@H]([C@@H](O)[C@@H]1O)[C@@]1(C)CC(=O)C(OC(=O)C[C@@H](N)C(F)(F)F)=C(C)[C@@H]1C[C@H]3OC(=O)[C@H](OC(=O)C=C(C)C)[C@@H]24` the value was “inactive”.
For `COC(=O)[C@@]12OC[C@]34[C@H]([C@@H](O)[C@@H]1O)[C@@]1(C)CC(=O)C(OC(=O)C[C@H](C)NC(=O)OC(C)(C)C)=C(C)[C@@H]1C[C@H]3OC(=O)[C@H](OC(=O)C=C(C)C)[C@@H]24` the value was “inactive”.
As for `COC(=O)[C@@]12OC[C@]34[C@H]([C@@H](O)[C@@H]1O)[C@@]1(C)CC(=O)C(OC(=O)[C@@H](N)CC(C)C)=C(C)[C@@H]1C[C@H]3OC(=O)[C@H](OC(=O)C=C(C)C)[C@@H]24`, the entry is “Active”; as for `COC(=O)[C@@]12OC[C@]34[C@H]([C@@H](O)[C@@H]1O)[C@@]1(C)CC(=O)C(OC(=O)[C@@H]5CCCN5)=C(C)[C@@H]1C[C@H]3OC(=O)[C@H](OC(=O)C=C(C)C)[C@@H]24`, “Active”.
On to `COC(=O)[C@@]12OC[C@]34[C@H]([C@@H](O)[C@@H]1O)[C@@]1(C)CC(=O)C(OCC(=O)NCCC(=O)O)=C(C)[C@@H]1C[C@H]3OC(=O)[C@H](OC(=O)C=C(C)C)[C@@H]24`, for which the inhibition entry was “inactive”.
As for `COC(=O)[C@@]12OC[C@]34[C@H]([C@@H](O)[C@@H]1O)[C@@]1(C)CC(=O)C(OC(=O)C[C@@H](N)C5CC5)=C(C)[C@@H]1C[C@H]3OC(=O)[C@H](OC(=O)C=C(C)C)[C@@H]24`, the entry is “inactive”; as for `COC(=O)[C@@]12OC[C@]34[C@H]([C@@H](O)[C@@H]1O)[C@@]1(C)CC(=O)C(OCC(=O)C(C)(C)C)=C(C)[C@@H]1C[C@H]3OC(=O)[C@H](OC(=O)C=C(C)C)[C@@H]24`, “inactive”.
For `COC(=O)[C@@]12OC[C@]34[C@H]([C@@H](O)[C@@H]1O)[C@@]1(C)CC(=O)C(OC(=O)[C@H](C)N)=C(C)[C@@H]1C[C@H]3OC(=O)[C@H](OC(=O)C=C(C)C)[C@@H]24` the value was “Active”.

(Values after ChEMBL document CHEMBL4699517 (Bioorg Med Chem Lett, 2020).)
